Assay results published in PubChem BioAssay (NCI).
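48-hour exposure; five concentrations; linearly interpolated endpoints. The concentration for 50% growth inhibition is given as GI50. TGI marks complete inhibition of growth.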

Legend:
Experiment in all cases: growth of human tumour cells (NCI), 48 h
[1] = tested on: MCF7 breast
[2] = tested on: SNB-75 CNS
[3] = tested on: OVCAR-4 ovarian
[4] = tested on: SK-OV-3 ovarian
[5] = tested on: MALME-3M melanoma
[6] = tested on: NCI-H23 lung
[7] = tested on: SF-539 CNS
[8] = tested on: RPMI-8226 leukemia
[9] = tested on: HOP-92 NSCLC
[10] = tested on: UACC-62 melanoma
[11] = tested on: K-562 leukemia
[12] = tested on: SNB-19 CNS
[13] = tested on: HT29 colon
[14] = tested on: DU-145 prostate
[15] = tested on: M14 melanoma
[16] = tested on: CAKI-1 renal
[17] = tested on: SF-268 CNS
[18] = tested on: ACHN renal
[19] = tested on: HCC-2998 colon
[20] = tested on: SR leukemia
[21] = tested on: OVCAR-5 ovarian
[22] = tested on: CCRF-CEM leukemia
[23] = tested on: SK-MEL-2 melanoma
[24] = tested on: SK-MEL-5 melanoma
[25] = tested on: TK-10 renal
[26] = tested on: NCI-H460 lung
[27] = tested on: EKVX NSCLC
[28] = tested on: HCT-116 colon
[29] = tested on: MOLT-4 leukemia
[30] = tested on: MDA-MB-435
[31] = tested on: PC-3 prostate
[32] = tested on: RXF 393 renal
[33] = tested on: SK-MEL-28 melanoma
[34] = tested on: NCI/ADR-RES ovarian
[35] = tested on: OVCAR-8 ovarian
[36] = tested on: A549 NSCLC
[37] = tested on: OVCAR-3 ovarian
[38] = tested on: IGROV1 ovarian
[39] = tested on: SW-620 colon
[40] = tested on: NCI-H226 lung
[41] = tested on: BT-549 breast
[42] = tested on: HL-60(TB) leukemia
[43] = tested on: HS 578T breast
[44] = tested on: MDA-MB-468 breast
[45] = tested on: SN12C renal
[46] = tested on: U251 CNS
[47] = tested on: 786-0 renal
[48] = tested on: LOX IMVI melanoma
[49] = tested on: MDA-MB-231 breast
[50] = tested on: SF-295 CNS
[51] = tested on: KM12 colon
[52] = tested on: A498 renal
[53] = tested on: HCT-15 colon
[54] = tested on: UO-31 renal
[55] = tested on: COLO 205 colon
[56] = tested on: NCI-H522 lung
[57] = tested on: HOP-62 NSCLC

CNc1nc2ccccc2n2c(-c3ccc(O)c(O)c3)cnc12
GI50 [1]: < 10 nM
TGI [1]: > 38500 nM
GI50 [2]: < 10 nM
TGI [2]: 14800 nM
GI50 [3]: 475 nM
TGI [3]: > 78800 nM
GI50 [4]: 191 nM
TGI [4]: 13600 nM
GI50 [5]: < 10 nM
TGI [5]: 19300 nM
GI50 [6]: < 10 nM
TGI [6]: 9560 nM
GI50 [7]: < 10 nM
TGI [7]: < 10 nM
GI50 [8]: < 10 nM
TGI [8]: 6600 nM
GI50 [9]: 170 nM
TGI [9]: 10500 nM
GI50 [10]: < 10 nM
TGI [10]: 5090 nM
GI50 [11]: < 10 nM
TGI [11]: > 100000 nM
GI50 [12]: < 10 nM
TGI [12]: 31100 nM
GI50 [13]: 36.7 nM
TGI [13]: 1640 nM
GI50 [14]: < 10 nM
TGI [14]: > 33900 nM
GI50 [15]: < 10 nM
TGI [15]: 2830 nM
GI50 [16]: < 10 nM
TGI [16]: 22200 nM
GI50 [17]: < 22.6 nM
TGI [17]: 54700 nM
GI50 [18]: < 10 nM
TGI [18]: 20900 nM
GI50 [19]: < 10 nM
TGI [19]: 15000 nM
GI50 [20]: < 10 nM
TGI [20]: > 34000 nM
GI50 [21]: < 10 nM
TGI [21]: 23300 nM
GI50 [22]: < 10 nM
TGI [22]: 1770 nM
GI50 [23]: < 10 nM
TGI [23]: 5750 nM
GI50 [24]: < 10 nM
TGI [24]: 14.2 nM
GI50 [25]: 7980 nM
TGI [25]: 44300 nM
GI50 [26]: < 10 nM
TGI [26]: 10500 nM
GI50 [27]: < 20.7 nM
TGI [27]: 32700 nM
GI50 [28]: < 10 nM
TGI [28]: 963 nM
GI50 [29]: < 10 nM
TGI [29]: 18900 nM
GI50 [30]: < 10 nM
TGI [30]: 1290 nM
GI50 [31]: < 10 nM
TGI [31]: 25900 nM
GI50 [32]: < 10 nM
TGI [32]: 14800 nM
GI50 [33]: < 10 nM
TGI [33]: 23300 nM
GI50 [34]: < 10 nM
TGI [34]: < 10 nM
GI50 [35]: < 10 nM
TGI [35]: 507 nM
GI50 [36]: < 10 nM
TGI [36]: > 35000 nM
GI50 [37]: < 10 nM
TGI [37]: 4620 nM
GI50 [38]: < 10 nM
TGI [38]: 18900 nM
GI50 [39]: < 10 nM
TGI [39]: > 69900 nM
GI50 [40]: 1410 nM
TGI [40]: 37900 nM
GI50 [41]: < 10 nM
TGI [41]: 1160 nM
GI50 [42]: < 10 nM
TGI [42]: < 10 nM
GI50 [43]: < 10 nM
TGI [43]: 8130 nM
GI50 [44]: < 10 nM
TGI [44]: < 10 nM
GI50 [45]: < 10 nM
TGI [45]: 10700 nM
GI50 [46]: < 10 nM
TGI [46]: > 39200 nM
GI50 [47]: 113 nM
TGI [47]: 21500 nM
GI50 [48]: < 10 nM
TGI [48]: 13700 nM
GI50 [49]: < 10 nM
TGI [49]: < 14.9 nM
GI50 [50]: < 11 nM
TGI [50]: 1740 nM
GI50 [51]: < 10 nM
TGI [51]: 26300 nM
GI50 [52]: 20700 nM
TGI [52]: 61600 nM
GI50 [53]: < 10 nM
TGI [53]: 31300 nM
GI50 [54]: < 10 nM
TGI [54]: 15900 nM
GI50 [55]: 128 nM
TGI [55]: 1560 nM
GI50 [56]: < 10 nM
TGI [56]: < 10 nM
GI50 [57]: < 10 nM
TGI [57]: 26100 nM
